Assay results from patent publication US20080113934A1, “USE OF DIPYRIDAMOLE OR MOPIDAMOL FOR TREATMENT AND PREVENTION OF FIBRIN-DEPENDENT MICROCIRCULATION DISORDERS” (priority 1999, published 2008).
Entries after “also recorded” stand apart in the source; their conditions may differ.

How the values were obtained:
[1] = system: common carotid artery of rabbits (angioplasty site); assay: Study using radiolabeled platelets and fibrinogen in vivo after balloon angioplasty of the carotid artery; conditions: rabbit carotid artery, monitored four hours after angioplasty; heparin 100 U/kg bolus followed by 25 U/kg/h infusion; dipyridamole 0.25 mg/kg followed by 0.45 mg/kg/hr
Description: FIG. 1: Simultaneous detection of ^99Tc labeled platelets and ^123I-labeled fibrinogen at one minute intervals after angioplasty of the common carotid artery of rabbits. […] No injury measurements showing constant radioactivity.
FIG. 2: Deposition of radioactive labeled platelets (^99Tc) and fibrinogen (123I) at angioplasty site after treatment with dipyridamole (0.25 mg/kg followed by 0.45 mg/kg/hr).
The effects of dipyridamole and heparin were investigated using platelets radiolabeled with ^99Tc and fibrinogen labeled with ^123I. The method is described in Lorenz, M. et al., Nuclear Instruments and Methods in Physics Research A., 1994, 353:448-452. An energy-sensitive solid-state radiation detector was placed to surround each carotid artery in rabbits. After inducing injury through balloon angioplasty, the accretion of platelets and fibrinogen was monitored for four hours. […] Accretion was not detected in radiolabeled platelets injected 30 minutes after injury; apparently the angioplasty site had been passivated by endogenous platelet adherence. […] (FIG. 2).

[2] = ESPS-2; compared with low-dose aspirin / aspirin alone; cited from earlier work

Row | Compound | accretion (deposition) of 99Tc labeled platelets at angioplasty site [1] | accretion (deposition) of 123I-labeled fibrinogen at angioplasty site [1] | reduction of stroke risk [2]
1 | OCCN(CCO)c1nc(N2CCCCC2)c2nc(N(CCO)CCO)nc(N3CCCCC3)c2n1 [dipyridamole, 2,6-bis(diethanolamino)-4,8-dipiperidino-pyrimido[5,4-d]pyrimidine] | reduced; also recorded: reduction in platelet aggregation which was similar to that seen with heparin | almost entirely blocked; also recorded: far greater with dipyridamole than with heparin | as effective as low-dose aspirin
2 | heparin | reduction of platelet as well as fibrinogen accretion; also recorded: reduced accumulation of both platelets and fibrinogen | reduction of platelet as well as fibrinogen accretion; also recorded: reduced accumulation of both platelets and fibrinogen | –
